In assay [1] the test system is Rattus norvegicus. The assay is described as follows: Antithrombotic activity was determined in rat upon oral administration at dose 20 mg/kg (4 hours before). It is filed as functional.
Assay [2] deals with Rattus norvegicus. Description: Antithrombotic activity was determined in rat upon oral administration at dose 3 mg/kg (4 hours before). The assay is classed as functional.

Activity data for 4 molecules are collected here from ChEMBL document CHEMBL1130865, “Carbaxylosides of 4-ethyl-2-oxo-2H-benzopyran-7-yl as non-hydrolyzable, orally active venous antithrombotic agents” (1998).

With `CCc1cc(=O)oc2cc(OC3CCC(O)[C@H](O)[C@H]3O)ccc12` (some centres undefined), the Activity in assay [1] worked out at 20%.

On to `CCc1cc(=O)oc2cc(OC3OCC(O)[C@H](O)[C@H]3O)ccc12` (some centres undefined), for which, in assay [2], the Activity is recorded as 71%.

In turn, `CCc1cc(=O)oc2cc(OC3SCC(O)[C@H](O)[C@H]3O)ccc12` (some centres undefined) yielded an Activity in assay [2] of 71%.

With `CCc1cc(=O)oc2cc(OC3CCC(O)C(O)C3O)ccc12` (single isomer, unassigned; (-)), the Activity in assay [1] worked out at 96%.
